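The compound was tested at five concentrations on cells cultured in 96-well plates, with a 48-hour exposure period. Here, GI50 denotes the concentration required for 50% inhibition of growth.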 Active and inactive are the calls of the source. No stated cut-off is given here; in the data, active = GI50 up to about 1.1 µM and inactive = higher.
What was measured:
Test in all cases: NCI anticancer screen, dose series, 48 h
M19-MEL = test system: M19-MEL
SK-OV-3 = test system: SK-OV-3
MDA-MB-231 = test system: MDA-MB-231
UO-31 = test system: UO-31
RPMI-8226 = test system: RPMI-8226
RXF 393 = test system: RXF 393
MCF7 = test system: MCF7
NCI-H522 = test system: NCI-H522
OVCAR-5 = test system: OVCAR-5
OVCAR-3 = test system: OVCAR-3
HOP-92 = test system: HOP-92
HCC 2998 = test system: HCC 2998
DMS-273 = test system: DMS-273
SW-620 = test system: SW-620
HOP-62 = test system: HOP-62
OVCAR-4 = test system: OVCAR-4
DU-145 = test system: DU-145
HL-60 = test system: HL-60
KM-20L2 = test system: KM-20L2
M14 = test system: M14
SK-MEL-28 = test system: SK-MEL-28
U-251 = test system: U-251
OVCAR-8 = test system: OVCAR-8
NCI-H226 = test system: NCI-H226
IGROV-1 = test system: IGROV-1
CCRF-CEM = test system: CCRF-CEM
BT-549 = test system: BT-549
UACC-257 = test system: UACC-257
SR = test system: SR
MOLT-4 = test system: MOLT-4
DMS-114 = test system: DMS-114
COLO 205 = test system: COLO 205
A549 = test system: A549
NCI/ADR-RES = test system: NCI/ADR-RES
HCT-15 = test system: HCT-15
EKVX = test system: EKVX
SF-268 = test system: SF-268
TK-10 = test system: TK-10
T47D = test system: T47D
K562 = test system: K562
SK-MEL-5 = test system: SK-MEL-5
LOX IMVI = test system: LOX IMVI
MDA-MB-435 = test system: MDA-MB-435
KM12 = test system: KM12
SNB-78 = test system: SNB-78
MDA-N = test system: MDA-N
SF-539 = test system: SF-539
ACHN = test system: ACHN
786-0 = test system: 786-0
RXF 631 = test system: RXF 631
UACC-62 = test system: UACC-62
SF-295 = test system: SF-295
SNB-75 = test system: SNB-75
NCI-H460 = test system: NCI-H460
NCI-H23 = test system: NCI-H23
LXFL 529 = test system: LXFL 529
Malme-3M = test system: Malme-3M
SN12C = test system: SN12C
Hs-578T = test system: Hs-578T
SNB-19 = test system: SNB-19
HT-29 = test system: HT-29
SK-MEL-2 = test system: SK-MEL-2
XF498 = test system: XF498
PC-3 = test system: PC-3
HCT-116 = test system: HCT-116
CAKI-1 = test system: CAKI-1
HOP-18 = test system: HOP-18
A498 = test system: A498

SMILES: OCCOc1ccc(-c2cc(-c3ccccn3)nc(-c3ccccn3)c2)cc1
- GI50 (M19-MEL): 96.2 nM (active)
- GI50 (SK-OV-3): 308 nM (active)
- GI50 (MDA-MB-231): 1390 nM (inactive)
- GI50 (UO-31): 124 nM (active)
- GI50 (RPMI-8226): 242 nM (active)
- GI50 (RXF 393): 337 nM (active)
- GI50 (MCF7): 277 nM (active)
- GI50 (NCI-H522): 661 nM (active)
- GI50 (OVCAR-5): 192 nM (active)
- GI50 (OVCAR-3): 110 nM (active)
- GI50 (HOP-92): 499 nM (active)
- GI50 (HCC 2998): 57.8 nM (active)
- GI50 (DMS-273): 143 nM (active)
- GI50 (SW-620): 267 nM (active)
- GI50 (HOP-62): 106 nM (active)
- GI50 (OVCAR-4): 73.1 nM (active)
- GI50 (DU-145): 106 nM (active)
- GI50 (HL-60): 53.8 nM (active)
- GI50 (KM-20L2): < 38.3 nM (active)
- GI50 (M14): 219 nM (active)
- GI50 (SK-MEL-28): 249 nM (active)
- GI50 (U-251): 148 nM (active)
- GI50 (OVCAR-8): 70 nM (active)
- GI50 (NCI-H226): 661 nM (active)
- GI50 (IGROV-1): 286 nM (active)
- GI50 (CCRF-CEM): 61.8 nM (active)
- GI50 (BT-549): 352 nM (active)
- GI50 (UACC-257): 481 nM (active)
- GI50 (SR): 110 nM (active)
- GI50 (MOLT-4): 76.7 nM (active)
- GI50 (DMS-114): 55.2 nM (active)
- GI50 (COLO 205): 115 nM (active)
- GI50 (A549): 172 nM (active)
- GI50 (NCI/ADR-RES): 202 nM (active)
- GI50 (HCT-15): 57.4 nM
- GI50 (EKVX): 107 nM (active)
- GI50 (SF-268): 107 nM (active)
- GI50 (TK-10): 889 nM (active)
- GI50 (T47D): 553 nM (active)
- GI50 (K562): 107 nM (active)
- GI50 (SK-MEL-5): 230 nM (active)
- GI50 (LOX IMVI): 91.6 nM (active)
- GI50 (MDA-MB-435): 526 nM (active)
- GI50 (KM12): 296 nM (active)
- GI50 (SNB-78): 2830 nM (inactive)
- GI50 (MDA-N): 697 nM (active)
- GI50 (SF-539): 190 nM (active)
- GI50 (ACHN): 66.1 nM (active)
- GI50 (786-0): 73.6 nM (active)
- GI50 (RXF 631): 465 nM (active)
- GI50 (UACC-62): 206 nM (active)
- GI50 (SF-295): 222 nM (active)
- GI50 (SNB-75): 458 nM (active)
- GI50 (NCI-H460): 84.9 nM (active)
- GI50 (NCI-H23): 447 nM (active)
- GI50 (LXFL 529): 376 nM (active)
- GI50 (Malme-3M): 309 nM (active)
- GI50 (SN12C): 195 nM (active)
- GI50 (Hs-578T): 1370 nM (inactive)
- GI50 (SNB-19): 284 nM (active)
- GI50 (HT-29): 112 nM (active)
- GI50 (SK-MEL-2): 115 nM (active)
- GI50 (XF498): 38.7 nM (active)
- GI50 (PC-3): 296 nM (active)
- GI50 (HCT-116): 115 nM (active)
- GI50 (CAKI-1): 398 nM (active)
- GI50 (HOP-18): 166 nM (active)
- GI50 (A498): 3300 nM (inactive)

Source: ChEMBL document CHEMBL1201862, “PubChem BioAssay data set” (2004)
